In patent publication US7897627B2, “Heteroaryl derivatives as orexin receptor antagonists” (Hoffmann-La Roche Inc., priority 2007, dated 2011):

Biological target: T1, human orexin-2 (hOX2) receptor (Homo sapiens, UniProt O43614)
T1 construct: expressed in transfected cells
T1 sequence (O43614 1-444): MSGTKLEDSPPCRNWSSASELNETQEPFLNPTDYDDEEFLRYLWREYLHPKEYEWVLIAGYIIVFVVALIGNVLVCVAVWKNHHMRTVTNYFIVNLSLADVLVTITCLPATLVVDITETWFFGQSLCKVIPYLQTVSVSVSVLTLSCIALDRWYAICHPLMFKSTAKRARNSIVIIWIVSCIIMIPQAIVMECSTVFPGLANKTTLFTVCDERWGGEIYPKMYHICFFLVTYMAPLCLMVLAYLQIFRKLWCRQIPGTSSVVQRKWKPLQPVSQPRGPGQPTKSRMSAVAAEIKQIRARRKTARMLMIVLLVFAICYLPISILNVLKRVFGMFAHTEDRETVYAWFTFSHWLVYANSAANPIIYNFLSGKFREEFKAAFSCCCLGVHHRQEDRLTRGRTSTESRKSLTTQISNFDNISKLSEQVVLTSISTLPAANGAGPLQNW
Experiment: Intracellular Ca2+ mobilization assay (FLIPR), CHO(dHFr-) cells expressing hOX2, orexin-A as agonist
Format: cell-based
Details: antagonist Kb=IC50/(1+[A]/EC50); orexin-A at EC80; CHO(dHFr-)-OX2R cells; antagonist applied 25 min before agonist
Experimental: Intracellular Ca^2+ Mobilization Assay
The Chinese Hamster Ovary (dHFr-) mutant cell line stably expressing human orexin-1 (hOX1) or human orexin-2 (hOX2) receptors were maintained in Dulbecco's Modified Eagle Medium (1×) with GlutaMax™1, 4500 mg/L D-Glucose and Sodium Pyruvate (Catalog No. 31966-021, Invitrogen, Carlsbad, Calif.), 5% dialyzed fetal calf serum (Catalog No. 26400-044), 100 μg/ml penicillin and 100 μg/ml streptomycin. The cells were seeded at 5×10^4 cells/well in the poly-D-lysine treated, 96-well, black/clear-bottomed plates (Catalog No. BD356640, BD Biosciences, Palo Alto, Calif.). 24 h later, the cells were loaded for 1 h at 37° C. with 4 μM Flou-4 acetoxymethyl ester (Catalog No. F-14202, Molecular Probes, Eugene, Oreg.) in FLIPR buffer (1×HBSS, 20 mM HEPES, 2.5 mM Probenecid). Hanks' Balanced Salt Solution (HBSS) (10×) (catalog No. 14065-049) and HEPES (1M) (catalog No. 15630-056) were purchased from Invitrogen, Carlsbad, Calif. Probenecid (250 mM) (catalog No. P8761) was from Sigma, Buchs, Switzerland. The cells were washed five times with FLIPR buffer to remove excess dye and intracellular calcium mobilization, [Ca^2−]i were measured using a Fluorometric Imaging Plate Reader (FLIPR-96, Molecular Devices, Menlo Park, Calif.) as described previously (Malherbe et al., Mol. Pharmacol., 64, 823-832, 2003). Orexin A (catalog No. 1455, Toris Cookson Ltd, Bristol, UK) was used as agonist. Orexin A ([…] stock solution in DMSO) was diluted in FLIPR buffer+0.1% BSA. The EC50 and EC80 values of orexin-A were measured daily from standard agonist concentration-response curves in CHO(dHFr-)-OX1R and -OX2R cell lines. All compounds were dissolved in 100% DMSO. Inhibition curves were determined by addition of 11 concentrations (0.0001-10 μM) of inhibitory compounds and using EC80 value of orexin-A as agonist (a concentration which gave 80% of max agonist response, determined daily). The antagonists were applied 25 min (incubation at 37° C.) before the application of the agonist. Responses were measured as peak increase in fluorescence minus basal, normalized to the maximal stimulatory effect induced by EC80 value of orexin-A or orexin-B. Inhibition curves were fitted according to the Hill equation: y=100/(1+(x/IC50)^nH), where nH=slope factor using Excel-fit 4 software (Microsoft).
Kb values were calculated according to the following equation Kb=IC50/(1+[A]/EC50) where A is the concentration of agonist added which is very close to agonist EC80 value, and IC50 and EC50 values were derived from the antagonist inhibition and orexin-A or B agonist curves, respectively.

Structure (SMILES): Cc1noc(-c2ccccc2C(=O)N2CC[C@@H](Nc3cnc4cc(F)c(F)cc4n3)C2)n1 [Example 169, [(R)-3-(6,7-Difluoro-quinoxalin-2-ylamino)-pyrrolidin-1-yl]-[2-(3-methyl-[1,2,4]oxadiazol-5-yl)-phenyl]-methanone]
- Kb: 0.0021 µM

Structure (SMILES): Cc1noc(-c2ccccc2C(=O)N2CC[C@@H](Nc3nc4ccc(Cl)cc4o3)C2)n1 [Example 69, [(R)-3-(6-Chloro-benzooxazol-2-ylamino)-pyrrolidin-1-yl]-[2-(3-methyl-[1,2,4]oxadiazol-5-yl)-phenyl]-methanone]
- Kb: 0.0155 µM

Structure (SMILES): COc1cccc(OC)c1C(=O)N1CC[C@@H](Nc2cnc3cc(F)c(F)cc3n2)C1 [Example 92, [(R)-3-(6,7-Difluoro-quinoxalin-2-ylamino)-pyrrolidin-1-yl]-(2,6-dimethoxy-phenyl)-methanone]
- Kb: 0.0029 µM

Structure (SMILES): Cc1onc(-c2ccccc2)c1C(=O)N1CC[C@@H](Nc2cnc3cc(F)c(F)cc3n2)C1 [Example 168, [(R)-3-(6,7-Difluoro-quinoxalin-2-ylamino)-pyrrolidin-1-yl]-(5-methyl-3-phenyl-isoxazol-4-yl)-methanone]
- Kb: 0.0038 µM

Structure (SMILES): Cc1nc(C(=O)N2CC[C@@H](Nc3nc4ccc(F)cc4s3)C2)c(-c2ccccc2)s1 [Example 120, [(R)-3-(6-Fluoro-benzothiazol-2-ylamino)-pyrrolidin-1-yl]-(2-methyl-5-phenyl-thiazol-4-yl)-methanone]
- Kb: 0.0188 µM

Structure (SMILES): Cc1cc(C(=O)N2CC[C@@H](Nc3nc4ccc(Cl)cc4o3)C2)c(C(F)(F)F)o1 [Example 86, [(R)-3-(6-Chloro-benzooxazol-2-ylamino)-pyrrolidin-1-yl]-(5-methyl-2-trifluoromethyl-furan-3-yl)-methanone]
- Kb: 0.0169 µM

Structure (SMILES): O=C(c1c(Cl)cccc1Cl)N1CC[C@@H](Nc2nc3ccc(Cl)cc3o2)C1 [Example 33, [(R)-3-(6-Chloro-benzooxazol-2-ylamino)-pyrrolidin-1-yl]-(2,6-dichloro-phenyl)-methanone]
- Kb: 0.0354 µM

Structure (SMILES): CCOc1ccccc1C(=O)N1CC[C@@H](Nc2nc3ccc(Cl)cc3o2)C1 [Example 52, [(R)-3-(6-Chloro-benzooxazol-2-ylamino)-pyrrolidin-1-yl]-(2-ethoxy-phenyl)-methanone]
- Kb: 0.0249 µM

Structure (SMILES): Cc1ccc(C(F)(F)F)c(C(=O)N2CC[C@@H](Nc3ccnc(-c4ccccc4)n3)C2)c1 [Example 200, (5-Methyl-2-trifluoromethyl-phenyl)-[(R)-3-(2-phenyl-pyrimidin-4-ylamino)-pyrrolidin-1-yl]-methanone]
- Kb: 0.0073 µM

Structure (SMILES): O=C(c1ccccc1OC(F)(F)C(F)F)N1CC[C@@H](Nc2nc3cc(F)cc(F)c3s2)C1 [Example 132, [(R)-3-(5,7-Difluoro-benzothiazol-2-ylamino)-pyrrolidin-1-yl]-[2-(1,1,2,2-tetrafluoro-ethoxy)-phenyl]-methanone]
- Kb: 0.016 µM

Structure (SMILES): O=C(c1ccccc1C(F)(F)F)N1CC[C@@H](Nc2cnc3ccccc3n2)C1 [Example 182, [(R)-3-(Quinoxalin-2-ylamino)-pyrrolidin-1-yl]-(2-trifluoromethyl-phenyl)-methanone]
- Kb: 0.027 µM

Structure (SMILES): O=C(c1ccccc1-c1ccsc1)N1CC[C@@H](Nc2nc3ccc(Cl)cc3o2)C1 [Example 84, [(R)-3-(6-Chloro-benzooxazol-2-ylamino)-pyrrolidin-1-yl]-(2-thiophen-3-yl-phenyl)-methanone]
- Kb: 0.0056 µM

Structure (SMILES): CSc1ccccc1C(=O)N1CC[C@@H](Nc2nc3ccc(Cl)cc3o2)C1 [Example 53, [(R)-3-(6-Chloro-benzooxazol-2-ylamino)-pyrrolidin-1-yl]-(2-methylsulfanyl-phenyl)-methanone]
- Kb: 0.0299 µM

Structure (SMILES): COc1cccc(OC)c1C(=O)N1CC[C@@H](Nc2cnc3cc(Cl)ccc3n2)C1 [Example 41, [(R)-3-(6-Chloro-quinoxalin-2-ylamino)-pyrrolidin-1-yl]-(2,6-dimethoxy-phenyl)-methanone]
- Kb: 0.0302 µM

Structure (SMILES): Cc1ccc(C(F)(F)F)c(C(=O)N2CC[C@@H](Nc3nc4c(Cl)cccc4s3)C2)c1 [Example 203]
- Kb: 0.008 µM

Structure (SMILES): Cc1nc(C(=O)N2CC[C@@H](Nc3cnc4cc(F)c(F)cc4n3)C2)c(-c2ccccc2)s1 [Example 172, [(R)-3-(6,7-Difluoro-quinoxalin-2-ylamino)-pyrrolidin-1-yl]-(2-methyl-5-phenyl-thiazol-4-yl)-methanone]
- Kb: 0.0032 µM

Structure (SMILES): Cc1ccc(Cl)c(C(=O)N2CC[C@@H](Nc3cnc4cc(F)c(F)cc4n3)C2)c1 [Example 170, (2-Chloro-5-methyl-phenyl)-[(R)-3-(6,7-difluoro-quinoxalin-2-ylamino)-pyrrolidin-1-yl]-methanone]
- Kb: 0.0129 µM

Structure (SMILES): O=C(c1ccccc1C(F)(F)F)N1CC[C@@H](Nc2cnc3cc(F)c(F)cc3n2)C1 [Example 165, [(R)-3-(6,7-Difluoro-quinoxalin-2-ylamino)-pyrrolidin-1-yl]-(2-trifluoromethyl-phenyl)-methanone]
- Kb: 0.0185 µM

Structure (SMILES): Cc1noc(-c2ccccc2C(=O)N2CC[C@@H](Nc3nc4c(F)cccc4s3)C2)n1 [Example 126, [(R)-3-(4-Fluoro-benzothiazol-2-ylamino)-pyrrolidin-1-yl]-[2-(3-methyl-[1,2,4]oxadiazol-5-yl)-phenyl]-methanone]
- Kb: 0.0144 µM

Structure (SMILES): Cc1cccc(Cl)c1C(=O)N1CC[C@@H](Nc2nc3ccc(Cl)cc3o2)C1 [Example 35, [(R)-3-(6-Chloro-benzooxazol-2-ylamino)-pyrrolidin-1-yl]-(2-chloro-6-methyl-phenyl)-methanone]
- Kb: 0.045 µM

Structure (SMILES): O=C(c1ccccc1-c1cccnc1)N1CC[C@@H](Nc2nc3ccc(Cl)cc3o2)C1 [Example 65, [(R)-3-(6-Chloro-benzooxazol-2-ylamino)-pyrrolidin-1-yl]-(2-pyridin-3-yl-phenyl)-methanone]
- Kb: 0.0272 µM

Structure (SMILES): Cc1noc(-c2ccccc2C(=O)N2CC[C@@H](Nc3nc4ccc(F)cc4s3)C2)n1 [Example 117, [(R)-3-(6-Fluoro-benzothiazol-2-ylamino)-pyrrolidin-1-yl]-[2-(3-methyl-[1,2,4]oxadiazol-5-yl)-phenyl]-methanone]
- Kb: 0.0197 µM

Structure (SMILES): O=C(c1c(F)cccc1N1CCCC1)N1CC[C@@H](Nc2nc3ccc(Cl)cc3o2)C1 [Example 90, [(R)-3-(6-Chloro-benzooxazol-2-ylamino)-pyrrolidin-1-yl]-(2-fluoro-6-pyrrolidin-1-yl-phenyl)-methanone]
- Kb: 0.0186 µM

Structure (SMILES): Cc1onc(-c2ccccc2)c1C(=O)N1CC[C@@H](Nc2nc3cc(F)cc(F)c3s2)C1 [Example 134, [(R)-3-(5,7-Difluoro-benzothiazol-2-ylamino)-pyrrolidin-1-yl]-(5-methyl-3-phenyl-isoxazol-4-yl)-methanone]
- Kb: 0.0228 µM

Structure (SMILES): Cc1onc(-c2ccccc2)c1C(=O)N1CC[C@@H](Nc2nc3ccc(Cl)cc3o2)C1 [Example 67, [(R)-3-(6-Chloro-benzooxazol-2-ylamino)-pyrrolidin-1-yl]-(5-methyl-3-phenyl-isoxazol-4-yl)-methanone]
- Kb: 0.0051 µM

Structure (SMILES): O=C(c1ccccc1OC(F)(F)F)N1CC[C@@H](Nc2nc3ccc(F)c(F)c3o2)C1 [Example 148, [(R)-3-(6,7-Difluoro-benzooxazol-2-ylamino)-pyrrolidin-1-yl]-(2-trifluoromethoxy-phenyl)-methanone]
- Kb: 0.0386 µM

Structure (SMILES): Cc1ccc(C(F)(F)F)c(C(=O)N2CC[C@@H](Nc3nc4ccc(F)cc4s3)C2)c1 [Example 115, [(R)-3-(6-Fluoro-benzothiazol-2-ylamino)-pyrrolidin-1-yl]-(5-methyl-2-trifluoromethyl-phenyl)-methanone]
- Kb: 0.0068 µM
